Measured values reported in the NIST ThermoML archive (doi:10.1021/je1003065).

Experiment: mn = molality of the nth substance listed, in mol/kg
Conditions: Liquid, Vibrating tube method

[Br-].[Li+] [lithium bromide] + CCO
Conditions	mass density [kg/m3]
333.09 K, 10272 kPa, m1 = 2.272	902.05
333.1 K, 20223 kPa, m1 = 1.462	864.16
333.11 K, 2291 kPa, m1 = 1.462	848.63
333.11 K, 9932 kPa, m1 = 1.462	855.51
333.11 K, 29979 kPa, m1 = 1.462	871.75
333.12 K, 5163 kPa, m1 = 1.462	851.27
333.12 K, 39966 kPa, m1 = 1.462	878.97
333.12 K, 49993 kPa, m1 = 1.462	885.74
333.12 K, 59791 kPa, m1 = 1.462	891.94
333.12 K, 69993 kPa, m1 = 1.462	898.03
333.12 K, 79815 kPa, m1 = 1.462	903.61
333.12 K, 89925 kPa, m1 = 1.462	909.13
333.12 K, 100027 kPa, m1 = 1.462	914.48
333.13 K, 2335 kPa, m1 = 2.272	895.03
333.13 K, 10112 kPa, m1 = 0.5972	803.35
333.13 K, 79924 kPa, m1 = 0.2335	831.2
333.14 K, 1023 kPa, m1 = 0.2335	771.66
333.14 K, 1618 kPa, m1 = 3.368	952.85
333.14 K, 5026 kPa, m1 = 2.833	927.9
333.14 K, 19985 kPa, m1 = 0.2335	789.05
333.14 K, 40021 kPa, m1 = 2.833	953.59
333.14 K, 80002 kPa, m1 = 2.833	976.7
333.15 K, 1032 kPa, m1 = 2.833	924.49
333.15 K, 1267 kPa, m1 = 0.9499	816.76
333.15 K, 1305 kPa, m1 = 0.9499	816.8
333.15 K, 2100 kPa, m1 = 0.5972	796.01
333.15 K, 5177 kPa, m1 = 2.272	897.13
333.15 K, 5214 kPa, m1 = 0.9499	820.56
333.15 K, 5223 kPa, m1 = 0.5972	798.91
333.15 K, 9985 kPa, m1 = 2.833	931.98
333.15 K, 10026 kPa, m1 = 0.2335	780.15
333.15 K, 19923 kPa, m1 = 0.9499	833.66
333.15 K, 29942 kPa, m1 = 0.9499	841.73
333.15 K, 29965 kPa, m1 = 2.833	946.88
333.15 K, 40014 kPa, m1 = 0.9499	849.24
333.15 K, 49925 kPa, m1 = 2.833	959.77
333.15 K, 50021 kPa, m1 = 0.2335	812.76
333.15 K, 50078 kPa, m1 = 0.9499	856.2
333.15 K, 59924 kPa, m1 = 0.9499	862.57
333.15 K, 60012 kPa, m1 = 0.2335	819.01
333.15 K, 60159 kPa, m1 = 0.5972	841.68
333.15 K, 69784 kPa, m1 = 2.833	971.18
333.15 K, 69794 kPa, m1 = 0.9499	868.58
333.15 K, 69985 kPa, m1 = 0.2335	825.32
333.15 K, 79935 kPa, m1 = 0.9499	874.45
333.15 K, 89956 kPa, m1 = 2.833	981.93
333.15 K, 89965 kPa, m1 = 0.2335	837.01
333.15 K, 89984 kPa, m1 = 0.9499	880.02
333.15 K, 99907 kPa, m1 = 2.272	958.17
333.15 K, 99958 kPa, m1 = 0.2335	842.17
333.15 K, 99967 kPa, m1 = 2.833	987.14
333.15 K, 99986 kPa, m1 = 0.9499	885.41
333.16 K, 5021 kPa, m1 = 0.2335	775.49
333.16 K, 19968 kPa, m1 = 2.833	939.71
333.16 K, 20295 kPa, m1 = 0.5972	812.23
333.16 K, 29945 kPa, m1 = 0.2335	797.44
333.16 K, 29996 kPa, m1 = 0.5972	820.22
333.16 K, 49994 kPa, m1 = 0.5972	835.21
333.16 K, 59945 kPa, m1 = 2.833	965.67
333.16 K, 69994 kPa, m1 = 0.5972	847.73
333.16 K, 80063 kPa, m1 = 0.5972	854.04
333.16 K, 89993 kPa, m1 = 0.5972	859.28
333.16 K, 100035 kPa, m1 = 0.5972	864.08
333.17 K, 39784 kPa, m1 = 0.2335	805.21
333.17 K, 40191 kPa, m1 = 0.5972	828.11
333.17 K, 89994 kPa, m1 = 2.272	952.98
333.17 K, 99575 kPa, m1 = 3.368	1013.64
333.18 K, 19918 kPa, m1 = 3.368	967.06
333.18 K, 20737 kPa, m1 = 2.272	910.39
333.18 K, 29946 kPa, m1 = 3.368	974.09
333.18 K, 29993 kPa, m1 = 2.272	917.22
333.18 K, 39652 kPa, m1 = 3.368	980.47
333.18 K, 40158 kPa, m1 = 2.272	924.19
333.18 K, 49954 kPa, m1 = 2.272	930.45
333.18 K, 49993 kPa, m1 = 3.368	986.85
333.18 K, 59593 kPa, m1 = 3.368	992.46
333.18 K, 60271 kPa, m1 = 2.272	936.65
333.18 K, 69927 kPa, m1 = 3.368	998.21
333.18 K, 69979 kPa, m1 = 2.272	942.19
333.18 K, 79359 kPa, m1 = 2.272	947.33
333.18 K, 79861 kPa, m1 = 3.368	1003.51
333.18 K, 89946 kPa, m1 = 3.368	1008.74
333.19 K, 5051 kPa, m1 = 3.368	955.66
333.19 K, 9894 kPa, m1 = 3.368	959.51
348.13 K, 29954 kPa, m1 = 0.2335	785.62
348.13 K, 59964 kPa, m1 = 2.833	956.11
348.14 K, 9989 kPa, m1 = 2.833	920.29
348.14 K, 10032 kPa, m1 = 0.2335	766.83
348.14 K, 10035 kPa, m1 = 0.5972	790.37
348.14 K, 19956 kPa, m1 = 2.272	898.47
348.14 K, 19956 kPa, m1 = 3.368	955.83
348.14 K, 29914 kPa, m1 = 0.5972	809.07
348.14 K, 30021 kPa, m1 = 1.462	860.82
348.14 K, 39925 kPa, m1 = 2.272	913.47
348.14 K, 50012 kPa, m1 = 0.5972	824.77
348.14 K, 69957 kPa, m1 = 3.368	988.75
348.14 K, 79624 kPa, m1 = 2.272	938.32
348.14 K, 89957 kPa, m1 = 0.5972	850.38
348.15 K, 1002 kPa, m1 = 0.5972	781.38
348.15 K, 1002 kPa, m1 = 3.368	940.13
348.15 K, 1003 kPa, m1 = 2.272	881.25
348.15 K, 1024 kPa, m1 = 0.2335	757.55
348.15 K, 1035 kPa, m1 = 2.833	912.41
348.15 K, 1304 kPa, m1 = 0.9499	803.97
348.15 K, 2021 kPa, m1 = 1.462	835.77
